pIC50: −log10 of the molar value. Like-named read-outs stand apart in the source and are kept apart here.
Assays:
[1] = biological target: T1, TBK1 (Homo sapiens, UniProt Q9UHD2); assay: In-vitro TBK1 kinase assay ([γ33]ATP filter-plate); assay type: biochemical
T1 construct: His-tag; made in house; host or cells: Sf9 insect cells
T1 sequence (Q9UHD2 1-729): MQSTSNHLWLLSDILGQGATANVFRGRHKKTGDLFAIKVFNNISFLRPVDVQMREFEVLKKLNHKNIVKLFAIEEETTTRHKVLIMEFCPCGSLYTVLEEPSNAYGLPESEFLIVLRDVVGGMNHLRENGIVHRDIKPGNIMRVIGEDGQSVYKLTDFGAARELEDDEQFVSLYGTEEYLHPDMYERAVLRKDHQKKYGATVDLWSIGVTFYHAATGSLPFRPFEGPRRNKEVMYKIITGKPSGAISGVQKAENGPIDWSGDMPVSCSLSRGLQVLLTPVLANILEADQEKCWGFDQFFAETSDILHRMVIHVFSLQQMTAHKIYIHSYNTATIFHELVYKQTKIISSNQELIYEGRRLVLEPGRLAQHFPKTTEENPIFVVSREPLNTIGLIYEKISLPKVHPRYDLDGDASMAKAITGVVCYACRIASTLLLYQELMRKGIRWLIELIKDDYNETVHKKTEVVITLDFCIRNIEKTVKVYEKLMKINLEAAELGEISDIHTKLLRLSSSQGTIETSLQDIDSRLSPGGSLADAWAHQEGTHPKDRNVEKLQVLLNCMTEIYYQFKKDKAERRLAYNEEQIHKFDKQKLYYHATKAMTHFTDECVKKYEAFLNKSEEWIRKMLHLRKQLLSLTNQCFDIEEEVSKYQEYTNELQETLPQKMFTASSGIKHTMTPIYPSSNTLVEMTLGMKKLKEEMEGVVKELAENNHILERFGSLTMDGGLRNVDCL
Description: IKKε enzyme was produced as a His-tag fusion in Sf9 cells and used at a final concentration of […]. TBK1 enzyme was produced as a His-tag fusion in Sf9 cells and used at a final concentration of 0.1 μg/ml. Kinase reactions were carried out in reaction buffer using myelin basic protein (Millipore, Ballerica, Mass.) or casein (Sigma, St. Louis, Mo.) as substrate at an ATP concentration equal to twice the Km,ATP value for each enzyme, corresponding to 32 μM ATP for IKKε and 60 μM ATP for TBK1, in the presence of 0.3 μCi [γ^33]ATP (PerkinElmer, Waltham, Mass.). Final enzyme concentrations were 0.1 or 0.015 μg/ml (IKKε) and 0.1 or 0.02 μg/ml (TBK1), representing “normal” and “sensitized” assay conditions respectively. Test compounds (or DMSO solvent as a control) were added prior to initiation of the reactions. Reactions were terminated after 30-45 minutes by adding 3% phosphoric acid. Terminated reactions were transferred to P-81 cellulose phosphate filterplates (Whatman, Inc., Piscataway, N.J.) and washed with 1% phosphoric acid on a vacuum apparatus. After air drying, scintillant (PerkinElmer, Waltham, Mass.) was added and the plates were read on a PerkinElmer TopCount NXT instrument. Counts were normalized to DMSO controls after background subtraction.

[2] = biological target: T2, IKKε (Homo sapiens, UniProt Q14164); assay: In-vitro IKKε kinase assay ([γ33]ATP filter-plate); assay type: biochemical
T2 construct: His-tag; made in house; host or cells: Sf9 insect cells
T2 sequence (Q14164 1-716): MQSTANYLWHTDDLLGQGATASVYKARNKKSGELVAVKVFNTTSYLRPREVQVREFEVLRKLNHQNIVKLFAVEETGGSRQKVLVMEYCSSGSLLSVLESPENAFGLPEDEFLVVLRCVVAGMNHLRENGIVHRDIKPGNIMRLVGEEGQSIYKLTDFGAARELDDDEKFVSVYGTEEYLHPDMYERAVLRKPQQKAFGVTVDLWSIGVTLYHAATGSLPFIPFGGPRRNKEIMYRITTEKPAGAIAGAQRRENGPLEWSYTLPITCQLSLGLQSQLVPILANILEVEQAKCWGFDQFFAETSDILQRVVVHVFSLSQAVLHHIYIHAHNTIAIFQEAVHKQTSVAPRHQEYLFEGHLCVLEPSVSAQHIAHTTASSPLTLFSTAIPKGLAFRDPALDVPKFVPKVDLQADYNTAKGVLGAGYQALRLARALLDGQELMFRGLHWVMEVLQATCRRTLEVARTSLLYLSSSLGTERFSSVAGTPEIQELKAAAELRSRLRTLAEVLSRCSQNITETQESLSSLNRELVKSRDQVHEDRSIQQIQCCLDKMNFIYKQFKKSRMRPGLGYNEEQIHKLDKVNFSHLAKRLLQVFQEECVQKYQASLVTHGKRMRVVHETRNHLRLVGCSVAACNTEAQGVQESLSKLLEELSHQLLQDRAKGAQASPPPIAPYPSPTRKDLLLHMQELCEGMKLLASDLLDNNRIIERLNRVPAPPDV
Summary of the method: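 His-tagged Sf9-expressed kinases at 0.1 or 0.02 μg/ml (TBK1) and 0.1 or 0.015 μg/ml (IKKε) for normal and sensitized formats, with myelin basic protein or casein substrate. ATP was at 2×Km (60 μM TBK1, 32 μM IKKε) plus 0.3 μCi [γ33]ATP. Reactions ran 30-45 min, were captured on P-81 filters, and counts were normalized to DMSO.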

[3] = text bins, read-out: IC50 for inhibition of the kinase activity of TBK1
[4] = text bins, read-out: IC50 for inhibition of the kinase activity of IKKε

| SMILES | pIC50 ([1]; Table 3, read-out: TBK1 IC50) | pIC50 [1, 3] | pIC50 ([2]; Table 3, read-out: IKKε IC50) | pIC50 [2, 4] |
| --- | --- | --- | --- | --- |
| COc1cc(NC(=O)NCCO)cc(Nc2nccc(-c3ccc(OC4CCN(C(C)=O)CC4)c(C#N)c3)n2)c1 [compound 380] | – | 7.00 to 8.00 | – | 7.30 to 8.30 |
| COc1ccc(-c2ccnc(Nc3cccc(NC(=O)N4CC[C@@H](O)C4)c3)n2)cc1C#N [compound 372, (3R)-N-(3-{[4-(3-Cyano-4-methoxyphenyl)pyrimidin-2-yl]amino}phenyl)-3-hydroxypyrrolidine-1-carboxamide] | – | 7.00 to 8.00 | – | 7.30 to 8.30 |
| CS(=O)(=O)NCCOc1ccc(-c2ccnc(Nc3ccc(N4CCOCC4)cc3)n2)cc1C#N [Example 177, N-{2-[2-cyano-4-(2-{[4-(morpholin-4-yl)phenyl]amino}pyrimidin-4-yl)phenoxy]ethyl} methanesulfonamide] | – | 7.00 to 8.00 | – | 7.30 to 8.30 |
| C[C@H](O)C(=O)N1CCC(Oc2ccc(-c3ccnc(Nc4ccc(C(=O)NCCCN(C)C)cc4)n3)cc2C#N)CC1 [Example 4, 4-({4-[3-cyano-4-({1-[(2S)-2-hydroxypropanoyl]piperidin-4-yl}oxy)phenyl]pyrimidin-2-yl}amino)-N-[3-(dimethylamino)propyl]benzamide] | – | > 8.00 | – | > 8.30 |
| COc1ccc(-c2ccnc(Nc3ccc(OC4CCN(C)CC4)cc3)n2)cc1C#N [Example 288, 2-Methoxy-5-[2-({4-[(1-methylpiperidin-4-yl)oxy]phenyl}amino)pyrimidin-4-yl]benzonitrile] | – | > 8.00 | – | 7.30 to 8.30 |
| COc1cc(Nc2nccc(-c3ccc(OC4CCOCC4)c(C#N)c3)n2)ccc1OCCOCCNS(=O)(=O)N(C)C [Example 26, N′-(2-{2-[4-({4-[3-cyano-4-(tetrahydro-2H-pyran-4-yloxy)phenyl]pyrimidin-2-yl}amino)-2-methoxyphenoxy]ethoxy}ethyl)-N,N-dimethylsulfuric diamide] | – | > 8.00 | – | > 8.30 |
| CN(C)c1ccc(Nc2nccc(-c3cccc(C#N)c3)n2)cc1 [Example 286, 3-(2-{[4-(Dimethylamino)phenyl]amino}pyrimidin-4-yl)benzonitrile] | – | 6.30 to 7.00 | – | 6.30 to 7.30 |
| COc1cc(Nc2nccc(-c3ccc(O)c(C#N)c3)n2)ccc1N1CCNC(=O)C1 [compound 326, 2-Hydroxy-5-(2-{[3-methoxy-4-(3-oxopiperazin-1-yl)phenyl]amino}pyrimidin-4-yl)benzonitrile] | – | > 8.00 | – | > 8.30 |
| N#Cc1cc(-c2ccnc(Nc3ccc(N4CCOCC4)c(F)c3)n2)ccc1OC1CCOCC1 [Example 24, 5-(2-{[3-fluoro-4-(morpholin-4-yl)phenyl]amino}pyrimidin-4-yl)-2-(tetrahydro-2H-pyran-4-yloxy)benzonitrile] | – | > 8.00 | – | > 8.30 |
| N#Cc1cc(-c2ccnc(Nc3ccc(N4CCOCC4)cc3)n2)ccc1NN1CCOCC1 [Example 285, 2-(morpholin-4-ylamino)-5-(2-{[4-(morpholin-4-yl)phenyl]amino}pyrimidin-4-yl)benzonitrile] | – | > 8.00 | – | 7.30 to 8.30 |
| COc1cc(C#N)cc(-c2ccnc(Nc3ccc(N4CCOCC4)cc3)n2)c1 [Example 241, 3-Methoxy-5-(2-{[4-(morpholin-4-yl)phenyl]amino}pyrimidin-4-yl)benzonitrile] | – | 7.00 to 8.00 | – | 7.30 to 8.30 |
| N#Cc1cccc(-c2ccnc(Nc3ccc(Cl)cc3)n2)c1 [compound 340, 3-{2-[(4-Chlorophenyl)amino]pyrimidin-4-yl}benzonitrile] | – | 6.30 to 7.00 | – | – |
| COc1cc(Nc2nccc(-c3ccc(OC4CCN(C(=O)OC(C)(C)C)CC4)c(C#N)c3)n2)ccc1N1CCOCC1 [Example 263, tert-butyl 4-[2-cyano-4-(2-{[3-methoxy-4-(morpholin-4-yl)phenyl]amino}pyrimidin-4-yl)phenoxy]piperidine-1-carboxylate] | – | 6.30 to 7.00 | – | – |
| N#Cc1cccc(-c2ccnc(Nc3ccc(OCCN4CCOCC4)cc3)n2)c1 [Example 283, 3-[2-({4-[2-(Morpholin-4-yl)ethoxy]phenyl}amino)pyrimidin-4-yl]benzonitrile] | – | 7.00 to 8.00 | – | – |

Results, then the compound that gave them:

| pIC50 ([1]; Table 3, read-out: TBK1 IC50) | pIC50 [1, 3] | pIC50 ([2]; Table 3, read-out: IKKε IC50) | pIC50 [2, 4] | SMILES |
| --- | --- | --- | --- | --- |
| 8.68 | > 8.00 | 9.22 | > 8.30 | COCCNC(=O)c1ccc(Nc2nccc(-c3ccc(OCC(C)C)c(C#N)c3)n2)cc1 [compound 565, 4-({4-[3-Cyano-4-(2-methylpropoxy)phenyl]pyrimidin-2-yl}amino)-N-(2-methoxyethyl) benzamide] |
| – | 6.30 to 7.00 | – | 6.30 to 7.30 | COc1cccc(Nc2nccc(-c3cccc(C#N)c3)n2)c1 [compound 389, 3-{2-[(3-Methoxyphenyl)amino]pyrimidin-4-yl}benzonitrile] |
| – | > 8.00 | – | > 8.30 | N#Cc1cc(-c2ccnc(Nc3ccc(CS(=O)(=O)NCCO)cc3)n2)ccc1NC(=O)C1CC1 [compound 566, N-(2-Cyano-4-{2-[(4-{[(2-hydroxyethyl)sulfamoyl]methyl}phenyl)amino]pyrimidin-4-yl}phenyl) cyclopropane-carboxamide] |
| – | > 8.00 | – | 7.30 to 8.30 | COc1cc(Nc2nc(-c3ccc(OC4CCOCC4)c(C#N)c3)c3nc[nH]c3n2)ccc1N1CCOCC1 [compound 633, 5-(2-{[3-Methoxy-4-(morpholin-4-yl)phenyl]amino}-3H-purin-6-yl)-2-(tetrahydro-2H-pyran-4-yloxy)benzonitrile] |
| – | 7.00 to 8.00 | – | 7.30 to 8.30 | CC(C)C(=O)Nc1ccc(-c2ccnc(Nc3ccc(CCN4CCOCC4)cc3)n2)cc1C#N [compound 463, N-{2-cyano-4-[2-({4-[2-(morpholin-4-yl)ethyl]phenyl}amino)pyrimidin-4-yl]phenyl}-2-methylpropanamide] |
| – | > 8.00 | – | 7.30 to 8.30 | N#Cc1cc(-c2ccnc(Nc3ccc(N4CCOCC4)cc3)n2)ccc1OCC1CCNC1 (stereo not shown) [compound 456, 5-(2-{[4-(morpholin-4-yl)phenyl]amino}pyrimidin-4-yl)-2-(pyrrolidin-3-ylmethoxy) benzonitrile] |
| – | > 8.00 | – | 7.30 to 8.30 | COc1ccc(Nc2nccc(-c3ccc(NC(=O)C(C)C)c(C#N)c3)n2)cc1OCCCN1CCOCC1 [compound 433, N-{2-cyano-4-[2-({4-methoxy-3-[3-(morpholin-4-yl)propoxy]phenyl}amino)pyrimidin-4-yl]phenyl}-2-methylpropanamide] |
| – | > 8.00 | – | > 8.30 | CN(C)c1cccc(Nc2nccc(-c3ccc(OC4CCOCC4)c(C#N)c3)n2)c1 [compound 539, 5-(2-{[3-(Dimethylamino)phenyl]amino}pyrimidin-4-yl)-2-(tetrahydro-2H-pyran-4-yloxy)benzonitrile] |
